Results as given in patent publication US20050004211A1, “Pharmaceutical compositions comprising aryl-substituted acyclic enediyne compounds” (KAOHSIUNG MEDICAL UNIVERSITY, priority 2003, published 2005).
Marks after values point to notes of the source that are not given here.

Assays:
PC-3 = conditions: read-out: GI50 PC-3; Table 4
U251 = conditions: Table 4; for CC50: read-out: LC50 U251; for GI50: read-out: GI50 U251
Colon Cancer cell lines = test: NCI full panel screen, panel average; conditions: Homo sapiens, read-out: cytotoxicity, average of all Colon Cancer cell lines
IGROV1 = conditions: Table 4; for GI50: read-out: GI50 IGROV1; for CC50: read-out: LC50 IGROV1
SN12C = conditions: read-out: GI50 SN12C; Table 4
K-562 = conditions: Table 4; for CC50: read-out: LC50 K-562; for GI50: read-out: GI50 K-562
KM12 = conditions: Table 4; for CC50: read-out: LC50 KM12
Breast Cancer cell lines = test: NCI full panel screen, panel average; conditions: Homo sapiens, read-out: cytotoxicity, average of all Breast Cancer cell lines
Renal Cancer cell lines = test: NCI full panel screen, panel average; conditions: Homo sapiens, read-out: cytotoxicity, average of all Renal Cancer cell lines
NCI-H23 = conditions: read-out: GI50 NCI-H23; Table 4
[1] = test system: Prostate Cancer cell lines; test: NCI full panel screen, panel average; conditions: Homo sapiens, read-out: cytotoxicity, average of all Prostate Cancer cell lines
CNS Cancer cell lines = test: NCI full panel screen, panel average; conditions: Homo sapiens, read-out: cytotoxicity, average of all CNS Cancer cell lines
SW-620 = conditions: Table 4; for GI50: read-out: GI50 SW-620; for CC50: read-out: LC50 SW-620
Breast cancer cell MCF-7 = test: Preliminary cytotoxicity test; assay type: cell-based, human
SF-295 = conditions: Table 4; for GI50: read-out: GI50 SF-295; for CC50: read-out: LC50 SF-295
OVCAR-3 = test: NCI full panel screen; conditions: Homo sapiens; for GI50: OVCAR-3, read-out: GI50 OVCAR-3; for CC50: OVCAR-3, read-out: LC50 OVCAR-3
CAKI-1 = conditions: Table 4; for GI50: read-out: GI50 CAKI-1; for CC50: read-out: LC50 CAKI-1
NCI-H522 = conditions: Table 4; for CC50: read-out: LC50 NCI-H522; for GI50: read-out: GI50 NCI-H522
NCI/ADR-RES = conditions: Table 4; for GI50: read-out: GI50 NCI/ADR-RES; for CC50: read-out: LC50 NCI/ADR-RES
UACC-82 = conditions: read-out: GI50 UACC-82; Table 4
SR = test: NCI full panel screen; conditions: Table 4; for CC50: read-out: LC50 SR; for GI50: read-out: GI50 SR
CNS cancer cell SF-268 = test: Preliminary cytotoxicity test; assay type: cell-based, human
[2] = test system: Ovarian Cancer cell lines; test: NCI full panel screen, panel average; conditions: Homo sapiens, read-out: cytotoxicity, average of all Ovarian Cancer cell lines
SK-MEL-5 = conditions: Table 4; for GI50: read-out: GI50 SK-MEL-5; for CC50: read-out: LC50 SK-MEL-5
DU-145 = test: NCI full panel screen; conditions: Table 4; for CC50: read-out: LC50 DU-145; for GI50: read-out: GI50 DU-145
Melanoma cell lines = test: NCI full panel screen, panel average; conditions: Homo sapiens, read-out: cytotoxicity, average of all Melanoma cell lines
[3] = test system: Non-small cell Lung cancer cell NCI-H460; test: Preliminary cytotoxicity test; assay type: cell-based, human
[4] = test system: Non-Small Cell Lung Cancer cell lines; test: NCI full panel screen, panel average; conditions: Homo sapiens, read-out: cytotoxicity, average of all Non-Small Cell Lung Cancer cell lines
Leukemia cell lines = test: NCI full panel screen, panel average; conditions: Homo sapiens, read-out: cytotoxicity, average of all Leukemia cell lines
MDA-MB-435 = conditions: read-out: GI50 MDA-MB-435; Table 4

With `N#Cc1ccccc1C#CC=CC#Cc1ccccn1` [Compound 27, 2-(6-(2-pyridinyl)-3-hexen-1,5-diynyl)benzonitrile] the GI50 (PC-3) was 13.7 µM, the CC50 (U251) was 79 µM and the IC50 (Colon Cancer cell lines) was 16.3 µM. It also gave a GI50 (IGROV1) of 17 µM, a CC50 (IGROV1) of 79.1 µM and a GI50 (SN12C) of 20.4 µM. For the same molecule, the CC50 (K-562) was > 100 µM, the CC50 (KM12) was 80.4 µM and the IC50 (Breast Cancer cell lines) was 14.3 µM. It also gave an IC50 (Renal Cancer cell lines) of 21.7 µM, a GI50 (NCI-H23) of 12.3 µM and an IC50 [1] of 21.2 µM. The IC50 (CNS Cancer cell lines) was 20.9 µM, the GI50 (SW-620) was 12.6 µM and the CC50 (SW-620) was 80.5 µM. The “Growth percentage, Breast cancer cell MCF-7” value (Breast cancer cell MCF-7) was 49%, the GI50 (SF-295) was 20.1 µM and the CC50 (SF-295) was > 100 µM. For the same molecule, the GI50 (OVCAR-3) was 4.26 µM, the CC50 (OVCAR-3) was 56.9 µM and the GI50 (CAKI-1) was 21.8 µM. For the same molecule, the CC50 (CAKI-1) was > 100 µM, the CC50 (NCI-H522) was 84.7 µM and the GI50 (NCI/ADR-RES) was 16.5 µM. The CC50 (NCI/ADR-RES) was 71 µM, the GI50 (UACC-82) was 15.3 µM and the CC50 (SR) was > 100 µM. For the same molecule, the “Growth percentage, CNS cancer cell SF-268” value (CNS cancer cell SF-268) was 83%, the IC50 [2] was 27.3 µM and the GI50 (SK-MEL-5) was 2.99 µM. For the same molecule, the CC50 (SK-MEL-5) was 41.6 µM, the CC50 (DU-145) was > 100 µM and the IC50 (Melanoma cell lines) was 14.2 µM. For the same molecule, the “Growth percentage, Non-small cell Lung cancer cell NCI-H460” value [3] was 23* %, the IC50 [4] was 19.6 µM and the IC50 (Leukemia cell lines) was 12.8 µM.
For `N#Cc1ccccc1C#CC=CC#Cc1cnccn1` [Compound 30, 2-(6-(2-pyrazinyl)-3-hexen-1,5-diynyl)benzonitrile], the GI50 (PC-3) was 30.9 µM, the GI50 (U251) was 36.1 µM and the CC50 (U251) was > 100 µM. The IC50 (Colon Cancer cell lines) was 7.54 µM, the GI50 (IGROV1) was 46.2 µM and the CC50 (IGROV1) was > 100 µM. For the same molecule, the GI50 (SN12C) was 22.6 µM, the GI50 (MDA-MB-435) was 5.3 µM and the GI50 (K-562) was 4.88 µM. The CC50 (K-562) was > 100 µM, the GI50 (KM12; read-out: GI50 KM12) was 4.39 µM and the CC50 (KM12) was > 100 µM. For the same molecule, the IC50 (Breast Cancer cell lines) was 33.3 µM, the IC50 (Renal Cancer cell lines) was 27 µM and the GI50 (NCI-H23) was 15.9 µM. The IC50 [1] was 33.6 µM, the IC50 (CNS Cancer cell lines) was 32.2 µM and the GI50 (SW-620) was 6.98 µM. The CC50 (SW-620) was > 100 µM, the “Growth percentage, Breast cancer cell MCF-7” value (Breast cancer cell MCF-7) was 73% and the GI50 (SF-295) was 17.6 µM. The CC50 (SF-295) was > 100 µM, the GI50 (OVCAR-3) was 16.6 µM and the CC50 (OVCAR-3) was > 100 µM. The GI50 (CAKI-1) was 21.6 µM, the CC50 (CAKI-1) was > 100 µM and the GI50 (NCI-H522) was 14.8 µM. For the same molecule, the CC50 (NCI-H522) was > 100 µM, the GI50 (NCI/ADR-RES) was 15.9 µM and the CC50 (NCI/ADR-RES) was > 100 µM. For the same molecule, the GI50 (SR) was 4.3 µM, the CC50 (SR) was > 100 µM and the “Growth percentage, CNS cancer cell SF-268” value (CNS cancer cell SF-268) was 84%. The IC50 [2] was 38.1 µM, the GI50 (SK-MEL-5) was 19.6 µM and the CC50 (SK-MEL-5) was > 100 µM. The GI50 (DU-145) was 36.3 µM, the CC50 (DU-145) was > 100 µM and the IC50 (Melanoma cell lines) was 18.7 µM. For the same molecule, the “Growth percentage, Non-small cell Lung cancer cell NCI-H460” value [3] was 8* %, the IC50 [4] was 11.8 µM and the IC50 (Leukemia cell lines) was 5.05 µM.
`N#Cc1ccccc1C#CC=CC#Cc1ccccc1N` [Compound 32, 2-[6-(o-anilinyl)-3-hexen-1,5-diynyl]benzonitrile] was tested, and the GI50 (PC-3) was 2.78 µM, the GI50 (U251) was 0.43 µM and the CC50 (U251) was > 100 µM. For the same molecule, the IC50 (Colon Cancer cell lines) was 0.47 µM, the GI50 (IGROV1) was 0.27 µM and the CC50 (IGROV1) was > 100 µM. It also gave a GI50 (SN12C) of 0.41 µM, a GI50 (MDA-MB-435) of 0.11 µM and a GI50 (K-562) of 0.48 µM. The CC50 (K-562) was > 100 µM, the CC50 (KM12) was > 100 µM and the IC50 (Breast Cancer cell lines) was 2 µM. It also gave an IC50 (Renal Cancer cell lines) of 0.66 µM, a GI50 (NCI-H23) of 0.8 µM and an IC50 [1] of 3.13 µM. The IC50 (CNS Cancer cell lines) was 9.44 µM, the GI50 (SW-620) was 0.39 µM and the CC50 (SW-620) was > 100 µM. For the same molecule, the “Growth percentage, Breast cancer cell MCF-7” value (Breast cancer cell MCF-7) was 36%, the GI50 (SF-295) was 0.24 µM and the CC50 (SF-295) was 12.4 µM. For the same molecule, the GI50 (OVCAR-3) was 0.17 µM, the CC50 (OVCAR-3) was 98.4 µM and the GI50 (CAKI-1) was 0.13 µM. It also gave a CC50 (CAKI-1) of 35.9 µM, a GI50 (NCI-H522) of 0.3 µM and a CC50 (NCI-H522) of 8.62 µM. For the same molecule, the GI50 (NCI/ADR-RES) was 0.37 µM, the CC50 (NCI/ADR-RES) was > 100 µM and the GI50 (UACC-82) was 0.37 µM. For the same molecule, the GI50 (SR) was 0.25 µM, the CC50 (SR) was > 100 µM and the “Growth percentage, CNS cancer cell SF-268” value (CNS cancer cell SF-268) was 27* %. The IC50 [2] was 1.55 µM, the GI50 (SK-MEL-5) was 0.44 µM and the CC50 (SK-MEL-5) was 33.1 µM. The GI50 (DU-145) was 3.48 µM, the CC50 (DU-145) was > 100 µM and the IC50 (Melanoma cell lines) was 0.77 µM. The “Growth percentage, Non-small cell Lung cancer cell NCI-H460” value [3] was 8* %, the IC50 [4] was 1.7 µM and the IC50 (Leukemia cell lines) was 0.43 µM.
